# Laboratory results reported in patent US11339151B2, “Aliphatic acid amide derivative” (Sumitomo Dainippon Pharma Co., Ltd., priority 2019, dated 2022).
# pIC50, pKi: −log10 of the molar value.
# Legend:
# [1] = Test 3-1: metabolic stability test in human hepatic microsome; type: in vitro ADME; settings: microsome 0.1 mg/mL, test compound 0.1 μmol/L, 37° C., 30 minutes
# Protocol: Test 3-1: Metabolic Stability Test in Human Hepatic Microsome
# The metabolic stability of the present compound in human hepatic microsome was evaluated as mentioned below. Human hepatic microsome was obtained from Xenontech. Human hepatic microsome, NADPH, and each test compound were mixed in 25 mmol/L phosphate buffer solution (pH 7.4) to reach the following concentrations as shown below, and the mixture was incubated at 37° C. for 30 minutes. • Human hepatic microsome: 0.1 mg/mL • NADPH: 3.2 mmol/L • Test compound: 0.1 μmol/L
# The residual ratio of test compound in each sample after 30 minutes was measured by LC-MS, and the metabolic stability in human hepatic microsome was calculated from the following formula. Metabolic stability in human hepatic microsome (mL/min/mg protein)=−LN (residual ratio)/30/0.1
# [2] = target: hERG channel (Homo sapiens (Human), UniProt Q12809); experiment: Test 5: inhibitory activity for hERG channel (whole cell patch clamp, hERG-CHO cells); type: cell-based; settings: hERG-CHO cells, auto patch clamp
# Sequence of hERG channel (Q12809 whole entry): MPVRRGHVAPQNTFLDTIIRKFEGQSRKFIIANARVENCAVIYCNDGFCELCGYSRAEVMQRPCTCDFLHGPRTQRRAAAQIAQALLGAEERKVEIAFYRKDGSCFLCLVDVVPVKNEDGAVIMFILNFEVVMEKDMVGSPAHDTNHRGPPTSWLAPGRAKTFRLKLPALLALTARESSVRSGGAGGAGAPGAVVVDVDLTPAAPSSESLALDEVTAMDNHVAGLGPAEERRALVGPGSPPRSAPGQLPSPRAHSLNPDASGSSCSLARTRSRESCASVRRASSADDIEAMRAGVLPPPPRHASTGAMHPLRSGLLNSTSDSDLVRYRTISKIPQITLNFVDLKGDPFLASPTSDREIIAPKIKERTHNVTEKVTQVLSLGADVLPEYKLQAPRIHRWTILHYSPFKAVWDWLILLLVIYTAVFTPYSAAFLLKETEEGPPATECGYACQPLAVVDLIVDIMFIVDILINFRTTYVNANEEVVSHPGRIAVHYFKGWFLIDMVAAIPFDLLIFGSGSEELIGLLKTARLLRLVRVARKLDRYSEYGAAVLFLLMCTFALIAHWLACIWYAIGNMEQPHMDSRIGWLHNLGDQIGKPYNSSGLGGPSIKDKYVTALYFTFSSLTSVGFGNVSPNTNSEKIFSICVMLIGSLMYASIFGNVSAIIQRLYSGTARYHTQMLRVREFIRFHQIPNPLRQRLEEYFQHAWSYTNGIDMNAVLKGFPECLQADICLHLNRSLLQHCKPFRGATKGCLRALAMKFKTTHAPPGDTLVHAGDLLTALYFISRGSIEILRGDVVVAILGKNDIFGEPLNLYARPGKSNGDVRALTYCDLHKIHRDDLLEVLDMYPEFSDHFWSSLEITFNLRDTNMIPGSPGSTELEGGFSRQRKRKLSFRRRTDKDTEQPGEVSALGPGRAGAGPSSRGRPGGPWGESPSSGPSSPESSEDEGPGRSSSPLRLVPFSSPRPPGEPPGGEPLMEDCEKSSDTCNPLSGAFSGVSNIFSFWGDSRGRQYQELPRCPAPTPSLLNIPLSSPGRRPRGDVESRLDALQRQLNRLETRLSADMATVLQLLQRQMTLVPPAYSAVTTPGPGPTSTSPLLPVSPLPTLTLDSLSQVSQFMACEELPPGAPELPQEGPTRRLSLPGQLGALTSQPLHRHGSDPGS
# Protocol: Test 5: Evaluation of Inhibitory Activity for hERG Channel
# Inhibitory activity of the present compound for hERG channel was measured by whole cell patch clamp method with an auto patch clamp system using CHO cells in which hERG channel involved in human rapidly activating delayed rectifier potassium current (IKr) was forcibly expressed.
# hERG-CHO cells purchased from ChanTest Cop. were cultured in a CO2 incubator at 37° C., and dissociated from a flask with trypsin shortly before the measurement of hERG current to prepare a cell suspension.
# The cell suspension, the extracellular fluid, the intracellular fluid, and the measurement plate were set in an auto patch clamp system, and hERG current was measured by whole cell patch clamp method. […] Each pulse interval was 15 seconds. The data analysis was carried out with Qube Assay Software (Sophion Sophion). The test was carried out by applying incrementally 4 concentrations of each test compound, and the average of the maximum peak tail currents which were obtained from the last 3 stimulations in each concentration was determined as the evaluated data.
# [3] = target: human D2 receptor (Homo sapiens (Human), UniProt P14416); experiment: Test 1: binding activity for human D2 receptor ([3H]Spiperone, CHO cell membrane fraction); settings: [3H]Spiperone, room temperature 60 minutes
# Sequence of human D2 receptor (P14416 whole entry): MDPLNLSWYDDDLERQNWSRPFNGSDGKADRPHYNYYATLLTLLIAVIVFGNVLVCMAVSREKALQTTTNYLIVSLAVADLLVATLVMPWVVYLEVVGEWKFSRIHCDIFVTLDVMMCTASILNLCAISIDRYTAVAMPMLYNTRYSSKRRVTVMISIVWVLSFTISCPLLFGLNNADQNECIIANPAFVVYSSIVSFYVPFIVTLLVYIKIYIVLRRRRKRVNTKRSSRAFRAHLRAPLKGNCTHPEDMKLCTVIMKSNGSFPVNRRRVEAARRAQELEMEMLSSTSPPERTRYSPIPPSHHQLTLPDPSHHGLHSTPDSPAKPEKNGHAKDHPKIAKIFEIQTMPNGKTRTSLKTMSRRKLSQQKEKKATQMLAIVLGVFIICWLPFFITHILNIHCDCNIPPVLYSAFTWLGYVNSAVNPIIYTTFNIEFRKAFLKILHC
# Protocol: (§1) Ki value was evaluated from dissociation constant which was calculated from saturated binding tests, and a substrate concentration, and it was used as an index for binding affinity.
# [4] = target: T1, human 5-HT7 receptor (Homo sapiens (Human), UniProt P34969); experiment: Test 2: antagonist activity for human 5-HT7 receptor (aequorin luminescence, CHO-K1 cells); type: cell-based; settings: Gα16
# T1 sequence (P34969 whole entry): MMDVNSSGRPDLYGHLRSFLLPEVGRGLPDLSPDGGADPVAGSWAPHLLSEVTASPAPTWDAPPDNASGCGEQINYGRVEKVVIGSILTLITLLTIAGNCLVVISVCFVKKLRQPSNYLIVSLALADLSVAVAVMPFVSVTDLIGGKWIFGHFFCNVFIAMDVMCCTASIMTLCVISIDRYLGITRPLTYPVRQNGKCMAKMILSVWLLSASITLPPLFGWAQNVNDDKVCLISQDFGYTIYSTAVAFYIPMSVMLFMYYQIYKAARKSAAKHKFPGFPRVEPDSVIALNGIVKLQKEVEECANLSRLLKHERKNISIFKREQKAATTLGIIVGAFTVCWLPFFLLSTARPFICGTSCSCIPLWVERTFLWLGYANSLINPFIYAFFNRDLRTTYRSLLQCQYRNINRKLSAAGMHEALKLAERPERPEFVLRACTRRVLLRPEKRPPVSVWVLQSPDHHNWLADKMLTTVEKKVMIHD
# Protocol: Test 2: Evaluation of Antagonist Activity for Human 5-HT2A Receptor and Human 5-HT7 Receptor
# Aequorin, Gα 16 protein, and each receptor were transiently expressed in CHO-K1 cells (Chinese hamster ovary). The cells were cultivated in a CO2 incubator at 37° C. overnight, seeded into a 384-well plate, and stood at room temperature for 2 hours. Each compound dissolved in DMSO was added thereto, and changes in luminescence were measured by FDSS/μCELL drug discovery screening support system (Hamamatsu Photonics K.K.). As for antagonist activity, inhibitory activity of each compound was calculated by setting the luminescence level of wells to which 10 μmol/L endogenous ligand was added as 100%.
# [5] = target: T1, human 5-HT7 receptor; experiment: Test 1: binding activity for human 5-HT7 receptor ([3H]SB-269970, CHO cell membrane fraction); settings: [3H]SB-269970, room temperature 60 minutes
# Protocol: as §1
smiles,measurement,setting,value
"CCN(CCN1CCC(c2noc3cc(F)ccc23)CC1)C(=O)[C@@H](C)O [Example 1, (2R)—N-Ethyl-N-{2-[4-(6-fluoro-1,2-benzoisoxazol-3-yl)piperidin-1-yl]ethyl}-2-hydroxypropanamide]",Metabolic stability in human hepatic microsome,[1],<0.05 mL/min/mg protein
same,pIC50,[2],5.32
"CCN(CCN1CCC(n2ncc3cc(F)ccc32)CC1)C(=O)CCO [Example 2, N-Ethyl-N-{2-[4-(5-fluoro-1H-indazol-1-yl)piperidin-1-yl]ethyl}-3-hydroxypropanamide]",Metabolic stability in human hepatic microsome,[1],<0.05 mL/min/mg protein
same,pKi,[3],< 6.00
same,pIC50,[2],5.13
same,pIC50,[4],7.03
same,pKi,[5],8.03
"CCN(CCN1CCC(n2ncc3cc(F)ccc32)CC1)C(=O)[C@@H](C)O [Example 3, (2R)—N-Ethyl-N-{2-[4-(5-fluoro-1H-indazol-1-yl)piperidin-1-yl]ethyl}-2-hydroxypropanamide]",Metabolic stability in human hepatic microsome,[1],<0.05 mL/min/mg protein
same,pKi,[3],< 6.00
same,pIC50,[2],< 5.00
CCN(CCN1CCC(c2noc3cc(F)ccc23)CC1)C(=O)C(C)O (stereo not drawn) [Example 4],Metabolic stability in human hepatic microsome,[1],<0.05 mL/min/mg protein
same,pIC50,[2],5.15
CCN(CCN1CCC(c2noc3cc(F)ccc23)CC1)C(=O)C(O)CCC(=O)OC (stereo not drawn) [Example 5],Metabolic stability in human hepatic microsome,[1],0.186 mL/min/mg protein
same,pKi,[3],6.94
same,pIC50,[2],5.96
same,pIC50,[4],7.18
same,pKi,[5],8.62
CCN(CCN1CCC(c2noc3cc(F)ccc23)CC1)C(=O)C(C)(C)O [Example 6],Metabolic stability in human hepatic microsome,[1],0.053 mL/min/mg protein
same,pKi,[3],6.56
same,pIC50,[2],5.82
same,pIC50,[4],7.18
same,pKi,[5],8.24
CCN(CCN1CCC(c2noc3cc(F)ccc23)CC1)C(=O)C(C)(C)CO [Example 7],Metabolic stability in human hepatic microsome,[1],0.08 mL/min/mg protein
same,pKi,[3],7.10
same,pIC50,[2],5.46
same,pIC50,[4],7.96
same,pKi,[5],9.00
CCN(CCN1CCC(c2noc3cc(F)ccc23)CC1)C(=O)C(O)C(C)C (stereo not drawn) [Example 8],Metabolic stability in human hepatic microsome,[1],0.108 mL/min/mg protein
same,pKi,[3],6.53
same,pIC50,[2],5.38
same,pIC50,[4],8.10
same,pKi,[5],8.21
CCN(CCN1CCC(c2noc3cc(F)ccc23)CC1)C(=O)C1CCC(O)CC1 (stereo not drawn) [Example 9],Metabolic stability in human hepatic microsome,[1],<0.05 mL/min/mg protein
same,pKi,[3],> 7.00
same,pIC50,[4],8.10
same,pKi,[5],8.80
CCN(CCN1CCC(c2noc3cc(F)ccc23)CC1)C(=O)CC(C)O (stereo not drawn) [Example 10],Metabolic stability in human hepatic microsome,[1],<0.05 mL/min/mg protein
same,pKi,[3],> 7.00
same,pIC50,[2],5.44
same,pIC50,[4],8.05
same,pKi,[5],8.57
CCN(CCN1CCC(c2noc3cc(F)ccc23)CC1)C(=O)C1(O)CCOCC1 [Example 11],Metabolic stability in human hepatic microsome,[1],<0.05 mL/min/mg protein
same,pKi,[3],> 7.00
same,pIC50,[2],4.98
same,pIC50,[4],7.17
same,pKi,[5],8.28
CCN(CCN1CCC(c2noc3cc(F)ccc23)CC1)C(=O)CO [Example 12],Metabolic stability in human hepatic microsome,[1],0.089 mL/min/mg protein
same,pIC50,[2],5.66
same,pIC50,[4],7.09
same,pKi,[5],8.16
CCN(CCN1CCC(c2noc3ccc(C)cc23)CC1)C(=O)[C@H](C)O [Example 14],pKi,[3],< 6.00
same,pIC50,[2],5.02
same,pIC50,[4],7.09
same,pKi,[5],7.84
CCN(CCN1CCC(c2noc3cc(Cl)ccc23)CC1)C(=O)[C@H](C)O [Example 15],pKi,[3],< 6.00
same,pIC50,[4],7.07
same,pKi,[5],7.58
"CCN(CCN1CCC(c2c[nH]c3cc(F)ccc23)CC1)C(=O)[C@H](C)O [Example 20, (2S)—N-Ethyl-N-{2-[4-(6-fluoro-1H-indol-3-yl)piperidin-1-yl]ethyl}-2-hydroxypropanamide]",Metabolic stability in human hepatic microsome,[1],<0.05 mL/min/mg protein
same,pKi,[3],7.34
same,pIC50,[4],7.32
same,pKi,[5],8.82
"CCN(CCN1CCC(n2ncc3cc(F)ccc32)CC1)C(=O)[C@H](C)O [Example 21, (2S)—N-Ethyl-N-{2-[4-(5-fluoro-1H-indazol-1-yl)piperidin-1-yl]ethyl}-2-hydroxypropanamide]",Metabolic stability in human hepatic microsome,[1],<0.05 mL/min/mg protein
same,pKi,[3],< 6.00
same,pIC50,[2],4.82
C#CC(O)C(=O)N(CC)CCN1CCC(c2noc3cc(F)ccc23)CC1 (stereo not drawn) [Example 28],pKi,[3],> 7.00
same,pIC50,[4],7.10
same,pKi,[5],8.00
CC(O)C(=O)N(CC#N)CCN1CCC(c2noc3cc(F)ccc23)CC1 (stereo not drawn) [Example 32],pKi,[3],< 5.00
same,pIC50,[4],7.14
same,pKi,[5],6.96
CCN(CCN1CCC(c2noc3cc(F)ccc23)CC1)C(=O)C(F)(F)CO [Example 36],Metabolic stability in human hepatic microsome,[1],<0.05 mL/min/mg protein
same,pKi,[3],7.10
same,pIC50,[4],7.09
same,pKi,[5],9.00
CCCN(CCN1CCC(c2noc3cc(F)ccc23)CC1)C(=O)C(C)O (stereo not drawn) [Example 39],Metabolic stability in human hepatic microsome,[1],<0.05 mL/min/mg protein
same,pKi,[3],> 7.00
same,pIC50,[4],8.05
same,pKi,[5],9.15
[2H]C(C)(O)C(=O)N(CC)CCN1CCC(c2noc3cc(F)ccc23)CC1 (stereo not drawn) [Example 40],Metabolic stability in human hepatic microsome,[1],<0.05 mL/min/mg protein
same,pIC50,[2],5.00
CCN(CCN1CCC(c2noc3cc(F)ccc23)CC1)C(=O)[C@H]1CC[C@H](O)CC1 [Example 43],Metabolic stability in human hepatic microsome,[1],<0.05 mL/min/mg protein
same,pKi,[3],> 7.00
same,pIC50,[4],7.09
same,pKi,[5],8.37
CCN(CCN1CCC(c2noc3cc(F)ccc23)CC1)C(=O)[C@H]1CC[C@@H](O)CC1 [Example 44],Metabolic stability in human hepatic microsome,[1],<0.05 mL/min/mg protein
same,pKi,[3],> 7.00
same,pIC50,[4],7.11
same,pKi,[5],8.49
CCN(CCN1CCC(c2noc3cc(F)ccc23)CC1)C(=O)C1CC(O)C1 (stereo not drawn) [Example 46],Metabolic stability in human hepatic microsome,[1],<0.05 mL/min/mg protein
same,pKi,[3],7.12
same,pIC50,[4],7.08
same,pKi,[5],8.38
CCN(CCCN1CCC(c2noc3ccccc23)CC1)S(=O)(=O)C(C)CO (stereo not drawn) [Example 54],Metabolic stability in human hepatic microsome,[1],<0.05 mL/min/mg protein
same,pKi,[3],6.94
same,pIC50,[4],9.00
same,pKi,[5],8.59
CCN(CCCN1CCN(c2noc3cc(F)ccc23)CC1)S(=O)(=O)C(C)CO (stereo not drawn) [Example 55],Metabolic stability in human hepatic microsome,[1],0.059 mL/min/mg protein
same,pKi,[3],7.11
same,pIC50,[4],8.52
same,pKi,[5],10.00
CCN(CCN1CCC(c2noc3cc(Cl)ccc23)CC1)S(=O)(=O)CCO [Example 60],pKi,[3],< 6.00
same,pIC50,[4],7.14
same,pKi,[5],7.61
"CCN(CCN1CCC(c2noc3cc(F)ccc23)CC1)C(=O)C(O)CN (stereo not drawn) [Example 65, 3-Amino-N-ethyl-N-{2-[4-(6-fluoro-1,2-benzoisoxazol-3-yl)piperidin-1-yl]ethyl}-2-hydroxypropanamide]",Metabolic stability in human hepatic microsome,[1],<0.05 mL/min/mg protein
same,pKi,[3],6.71
same,pIC50,[4],7.09
same,pKi,[5],8.12
CCN(CCN1CCC(c2noc3cc(F)ccc23)CC1)C(=O)[C@H]1NCC[C@H]1O [Example 68],Metabolic stability in human hepatic microsome,[1],<0.05 mL/min/mg protein
same,pKi,[3],6.04
same,pIC50,[4],7.04
same,pKi,[5],7.31
CCN(CCN1CCC(c2noc3cc(F)ccc23)CC1)C(=O)C1CN(C(C)=O)CC1O (stereo not drawn) [Example 73],pKi,[3],6.69
same,pIC50,[4],7.09
same,pKi,[5],7.84
